Key:
[1] = test system: yeast and mold counts of shower water; experiment: Hadfield office shower head, Petrifilm yeast and mold count after biocide treatment; conditions: 0.05% solution, 5 ppm, 30 min contact
[2] = test system: aerobic counts of shower water; experiment: Hadfield office shower head, Petrifilm aerobic count after biocide treatment; conditions: 5 ppm; for Mb. Analyses Aerobic: 0.05% solution, 30 min contact
[3] = 24 hours after biocide addition, (1) Resting, 18 °C
[4] = 24 hours after biocide addition, (2) Shower running, 10 °C
[5] = 24 hours after biocide addition, (3) Shower running, 15 °C
[6] = 24 hours after biocide addition, (4) Shower running, 20 °C
[7] = 24 hours after biocide addition, (5) Shower running, 25 °C
[8] = 24 hours after biocide addition, (6) Shower running, 30 °C
[9] = 24 hours after biocide addition, (7) Shower running, 35 °C
[10] = 24 hours after biocide addition, (8) Shower running, 40 °C
[11] = 24 hours after biocide addition, (9) Shower running - full heat, 43 °C
[12] = 48 hours after biocide addition, (1) Resting, 17 °C
[13] = 48 hours after biocide addition, (2) Shower running, 10 °C
[14] = 48 hours after biocide addition, (3) Shower running, 15 °C
[15] = 48 hours after biocide addition, (4) Shower running, 20 °C
[16] = 48 hours after biocide addition, (5) Shower running, 25 °C
[17] = 48 hours after biocide addition, (6) Shower running, 30 °C
[18] = 48 hours after biocide addition, (7) Shower running, 35 °C
[19] = 48 hours after biocide addition, (8) Shower running, 40 °C
[20] = 48 hours after biocide addition, (9) Shower running - full heat, 42 °C

## CC1(C)C(=O)N(Cl)C(=O)N1Br [Omnia-Stat SP, 1-Bromo-3-chloro-5,5-dimethylhydantoin, reference compound]
[1]; [3]
  Mb. Analyses Yeast/Mold: No growth
[1]; [4]
  Mb. Analyses Yeast/Mold: No growth
[1]; [5]
  Mb. Analyses Yeast/Mold: No growth
[1]; [6]
  Mb. Analyses Yeast/Mold: 4 yeast cols/ml
[1]; [7]
  Mb. Analyses Yeast/Mold: 7 yeast cols/ml
[1]; [8]
  Mb. Analyses Yeast/Mold: 3 yeast cols/ml
[1]; [9]
  Mb. Analyses Yeast/Mold: 5 yeast cols/ml
[1]; [10]
  Mb. Analyses Yeast/Mold: No growth
[1]; [11]
  Mb. Analyses Yeast/Mold: No growth
[1]; [12]
  Mb. Analyses Yeast/Mold: 9 yeast cols/ml
[1]; [13]
  Mb. Analyses Yeast/Mold: 8 yeast cols/ml
[1]; [14]
  Mb. Analyses Yeast/Mold: 6 yeast cols/ml
[1]; [15]
  Mb. Analyses Yeast/Mold: 19 yeast cols/ml
[1]; [16]
  Mb. Analyses Yeast/Mold: No growth
[1]; [17]
  Mb. Analyses Yeast/Mold: 6 yeast cols/ml
[1]; [18]
  Mb. Analyses Yeast/Mold: No growth
[1]; [19]
  Mb. Analyses Yeast/Mold: 10 yeast cols/ml
[1]; [20]
  Mb. Analyses Yeast/Mold: 5 yeast cols/ml
[2]; [3]
  Mb. Analyses Aerobic: 480 cols/ml
[2]; [4]
  Mb. Analyses Aerobic: No growth
[2]; [5]
  Mb. Analyses Aerobic: 1 cols/ml
[2]; [6]
  Mb. Analyses Aerobic: 5 cols/ml
[2]; [7]
  Mb. Analyses Aerobic: 10 cols/ml
[2]; [8]
  Mb. Analyses Aerobic: 5 cols/ml
[2]; [9]
  Mb. Analyses Aerobic: 6 cols/ml
[2]; [10]
  Mb. Analyses Aerobic: No growth
[2]; [11]
  Mb. Analyses Aerobic: No growth
[2]; [12]
  Mb. Analyses Aerobic: 2600 cols/ml
[2]; [13]
  Mb. Analyses Aerobic: 3 cols/ml
[2]; [14]
  Mb. Analyses Aerobic: 3 cols/ml
[2]; [15]
  Mb. Analyses Aerobic: 5 cols/ml
[2]; [16]
  Mb. Analyses Aerobic: 9 cols/ml
[2]; [17]
  Mb. Analyses Aerobic: 2 cols/ml
[2]; [18]
  Mb. Analyses Aerobic: 10 cols/ml
[2]; [19]
  Mb. Analyses Aerobic: 6 cols/ml
[2]; [20]
  Mb. Analyses Aerobic: No growth
[2]; shower after 19 days resting
  microbiological recovery after two days compared with the basic product (Table 3): considerably greater
